One compound from ChEMBL document CHEMBL5154661, “Novel 2-phenyl-3-(Pyridin-2-yl) thiazolidin-4-one derivatives as potent inhibitors for proliferation of osteosarcoma cells in vitro and in vivo” (Eur J Med Chem, 2022) can be followed below.

One data set deals with 143B. Put plainly: Antiproliferative activity against human 143B cells assessed as cell growth inhibition at 1 uM measured after 72 hrs by CCK-8 assay relative to control. In kind it is functional. Background: Tetrazolium assays rely on reduction of a dye to a coloured formazan, in cell work by metabolically active cells.
A short description of data set [1]: Kinetic solubility of compound at pH 6.8 by turbidimetry method. In kind it is physicochemical. As to conditions: buffer, read-out: Kinetic_solubility.
Data set [2] relates to HOS-TE85. In words: Antiproliferative activity against human MNNG/HOS cells assessed as cell growth inhibition measured after 72 hrs by CCK-8 assay. As to conditions: HOS-TE85, 72 h. In kind it is functional, cell-based.
A further data set has as its system U2OS. Put plainly: Antiproliferative activity against human U2OS cells assessed as cell growth inhibition at 1 uM measured after 72 hrs by CCK-8 assay relative to control. Type of data set: functional.
The nature of data set [3]: Kinetic solubility of compound at pH 7.4 by turbidimetry method. In kind it is physicochemical. As to conditions: buffer, read-out: Kinetic_solubility.
Another data set concerns HOS. Put plainly: Antiproliferative activity against human HOS cells assessed as cell growth inhibition at 1 uM measured after 72 hrs by CCK-8 assay relative to control. Type of data set: functional.
Data set [4] can be described thus: Microsomal stability in rat liver microsomes assessed as intrinsic clearance at 0.1 uM incubated for 10 mins in presence of NADPH by LC-MS/MS analysis. Type of data set: ADME, Microsome.
In another data set the test system is SJSA-1. Put plainly: Antiproliferative activity against human SJSA-1 assessed as cell growth inhibition at 1 uM measured after 72 hrs by CCK-8 assay relative to control. In kind it is functional.
The subject of the next data set is MG-63. In words: Antiproliferative activity against human MG-63 cells assessed as cell growth inhibition at 1 uM measured after 72 hrs by CCK-8 assay relative to control. Type of data set: functional.
Data set [5] can be described thus: Microsomal stability in mouse liver microsomes assessed as intrinsic clearance at 0.1 uM incubated for 10 mins in presence of NADPH by LC-MS/MS analysis. Type of data set: ADME, Microsome. Background: Microsomes from liver hold many membrane-bound enzymes, among them those of drug oxidation.
Data set [6] is described as follows: Microsomal stability in human liver microsomes assessed as intrinsic clearance at 0.1 uM incubated for 10 mins in presence of NADPH by LC-MS/MS analysis. Type of data set: ADME, Microsome.
Data set [7] concerns HOS-TE85. Put plainly: Antiproliferative activity against human MNNG/HOS cells assessed as cell growth inhibition at 1 uM measured after 72 hrs by CCK-8 assay relative to control. In kind it is functional.

What is called inhibition is the change of the read-out against control, counted positive when it falls. Broadly, the IC50 is the concentration that gives 50% inhibition.

Structures are written as SMILES. In brackets after ≈: the same amount, converted by molar mass.

As for `O=C(NCCCCc1ccccc1)c1cccc(C2SCC(=O)N2c2cccc(F)c2)c1` (configuration not stated), the inhibition at 1 µM is 63% with 143B; 39% in the data set with U2OS; 84% with HOS; 80% in the data set on SJSA-1; 92% in the data set on MG-63; 94% in the data set with HOS-TE85 [7]. In addition, the solubility kinetic in data set [1] and in data set [3] was 10 µM (≈ 4.49 µg/mL) each time. For the same compound, the concentration for half-maximal inhibition (IC50) in the data set on HOS-TE85 [2] worked out at 32.4 nM. Further, the entries for the “intrinsic clearance (CLint)” value in [4], in data set [5] and in [6] were 3244 mL/min/g, 2737 mL/min/g and 1844 mL/min/g, respectively.
